What is called EC50 is the concentration giving half of the maximal effect.

Structures can show the parent of a compound that is named as a salt. Where two headings read alike, the source gives them in different places.

Experimental findings from patent US8815909B2, “Diaminocyclohexane compounds and uses thereof” (Bristol-Myers Squibb Company, priority 2011, dated 2014) are described below.

This experiment addresses T1, human Y4 receptor (Homo sapiens, UniProt P50391).
T1 construct: expressed in transfected cells
The experiment is described as follows: NPY4 cAMP HTRF Agonist Assay (inhibitory cAMP assay, Gi activation by Y4 agonism). In kind it is cell-based. In short, it runs like this:
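CHO cells stably expressing human Y4, 5000/well, exposed to compound with forskolin and IBMX in PBS for 30 min at room temperature. Gi-mediated inhibition of cAMP then measured by HTRF after 1 h with d2-conjugate and anti-cAMP cryptate.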
On the technique in general: Time-resolved FRET reads energy transfer from a long-lived donor to a nearby acceptor.

The mark [1] stands for this setting: human Y4 receptor, cAMP, read-out: hY4 CAMP EC50.
[2] abbreviates: human Y4 stable CHO clonal cells, forskolin + IBMX, read-out: NPY4 cAMP HTRF Agonist Assay EC50.
Setting [3] is: TABLE 2, R2 is Phenyl-CN, read-out: hY4 CAMP EC50.
Where [4] appears, read: TABLE 5, R2 is Pyridinyl-CF3, read-out: hY4 CAMP EC50.
The mark [5] stands for this setting: second TABLE 1, R2 is Phenyl-CF3, read-out: hY4 CAMP EC50.

T1 sequence (P50391 whole entry): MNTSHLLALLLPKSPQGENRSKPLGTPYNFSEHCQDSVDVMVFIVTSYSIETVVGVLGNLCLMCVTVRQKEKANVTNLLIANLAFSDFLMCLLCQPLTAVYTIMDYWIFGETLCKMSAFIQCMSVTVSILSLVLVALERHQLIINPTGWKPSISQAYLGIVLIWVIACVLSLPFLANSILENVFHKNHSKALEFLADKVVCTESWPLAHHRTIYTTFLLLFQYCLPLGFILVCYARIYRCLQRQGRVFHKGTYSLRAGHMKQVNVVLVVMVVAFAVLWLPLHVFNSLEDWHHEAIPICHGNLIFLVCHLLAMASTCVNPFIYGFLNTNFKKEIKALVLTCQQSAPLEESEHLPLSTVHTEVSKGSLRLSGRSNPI

Consider `N#Cc1cnc(N2C[C@@H]3C[C@H](N[C@@H]4CCCC[C@H]4Nc4ncc(-c5cccc(C(N)=O)c5)o4)[C@H]2C3)nc1` [Example 433], for which the EC50 under setting [1] came out at 144 nM.
For `N#Cc1ncc(N2CCC[C@H](N[C@@H]3CCCC[C@H]3Nc3cc(-c4cccc(C(N)=O)c4)ccn3)C2)cn1` [Example 431], the 50% effective concentration (EC50) under setting [1] worked out at 171 nM.
Turning to `N#Cc1ccc(N2CCC[C@H](N[C@@H]3CCCC[C@H]3Nc3cc(-c4cccc(C(N)=O)c4)ccn3)C2)cn1` [Example 316], for the setting “TABLE 4, R2 is Pyridinyl-CN, read-out: hY4 CAMP EC50”, the half-maximal effective concentration (EC50) was 165 nM.
`O=[N+]([O-])c1ccc(N2C[C@@H]3C[C@H](N[C@@H]4CCCC[C@H]4Nc4ncc(-c5ccc(OC(F)(F)F)cc5)o4)[C@H]2C3)cc1` [Example 5, (1R,2R)—N1-((1R,4R,6S)-2-(4-Nitrophenyl)-2-azabicyclo[2.2.1]heptan-6-yl)-N2-(5-(4-(trifluoromethoxy)phenyl)oxazol-2-yl)cyclohexane-1,2-diamine]: the EC50 under setting [2] was 9 nM.
Consider `O=[N+]([O-])c1ccc(N2CCC[C@H](N[C@@H]3CCCC[C@H]3Nc3ncc(-c4ccccc4)o3)C2)cc1` [Example 2, (1R,2R)—N1-((S)-1-(4-Nitrophenyl)piperidin-3-yl)-N2-(5-phenyloxazol-2-yl)cyclohexane-1,2-diamine], for which the EC50 under setting [2] is 3 nM.
Regarding `Cc1cnn(-c2ccc(N3CCC[C@H](N[C@@H]4CCCC[C@H]4Nc4nccc(-c5ccccc5)n4)C3)cc2)c1` [Example 65, (1R,2R)—N1-((S)-1-(4-(4-Methyl-1H-pyrazol-1-yl)phenyl)piperidin-3-yl)-N2-(4-phenylpyrimidin-2-yl)cyclohexane-1,2-diamine bis-trifluoroacetate], the EC50 under setting [2] came out at 62 nM.
For the compound `C[C@]1(N[C@@H]2CCCC[C@H]2Nc2ncc(-c3cccc(C(N)=O)c3)o2)CCCN(c2ccc(C#N)cc2)C1` [Example 199], the EC50 under setting [3] came to 2 nM.
Turning to `FC(F)(F)Oc1ccc(-c2cnc(N[C@@H]3CCCC[C@H]3N[C@H]3CCCN(c4ccnc(C(F)(F)F)c4)C3)o2)cc1` [Example 336], the EC50 under setting [4] is 212 nM.
With `N#Cc1ccc(N2CCC[C@H](N[C@@H]3CCCC[C@H]3Nc3cc(-c4cccc(Cl)c4)ccn3)C2)cc1` [Example 250], the EC50 under setting [3] amounted to 559 nM.
For the compound `NC(=O)c1cccc(-c2cnc(N[C@@H]3CCCC[C@H]3N[C@H]3CCCN(c4ccc(C(F)(F)F)nc4)C3)o2)c1` [Example 320], the concentration for a half-maximal effect (EC50) under setting [4] came to 1 nM.
In the case of `CC(C)(C)c1cccc(-c2ccnc(N[C@@H]3CCCC[C@H]3N[C@H]3CCCN(c4ccc(C#N)cc4)C3)c2)c1` [Example 259], the EC50 under setting [3] was found to be 59 nM.
On to `CNC(=O)c1cccc(-c2ccnc(N[C@@H]3CCCC[C@H]3N[C@H]3CCCN(c4ccc(C(F)(F)F)cc4)C3)c2)c1` [Example 130], for which the EC50 under setting [5] worked out at 1 nM.
`Cc1noc(-c2ccc(N3CCC[C@H](N[C@@H]4CCCC[C@H]4Nc4ncc(-c5cccc(C(N)=O)c5)o4)C3)cc2)n1` [Example 379]: the EC50 under setting [1] was determined as 1 nM.
In the case of `Cc1nnc(-c2ccc(N3CCC[C@H](N[C@@H]4CCCC[C@H]4Nc4ncc(-c5cccc(C(N)=O)c5)o4)C3)cc2)o1` [Example 346], the EC50 under setting [1] is 306 nM.
For the compound `FC(F)(F)Oc1ccc(-c2cnc(N[C@@H]3CCCC[C@H]3N[C@H]3CCCN(c4ncc(C(F)(F)F)cn4)C3)o2)cc1` [Example 80, (1R,2R)—N1-(5-(4-(Trifluoromethoxy)phenyl)oxazol-2-yl)-N2-((S)-1-(5-(trifluoromethyl)pyrimidin-2-yl)piperidin-3-yl)cyclohexane-1,2-diamine bis-trifluoroacetate], the EC50 under setting [2] was 242 nM.
For the compound `N#Cc1cnc(N2CCC[C@H](N[C@@H]3CCCC[C@H]3Nc3ncc(-c4cccc(C(N)=O)c4)o3)C2)cn1` [Example 478], the concentration for a half-maximal effect (EC50) under setting [1] worked out at 25 nM.
Take `Cc1nnc(-c2ccc(N3CCC[C@H](N[C@@H]4CCCC[C@H]4Nc4ncc(-c5ccccc5)o4)C3)cc2)o1` [Example 83, (1R,2R)—N1-((S)-1-(4-(5-Methyl-1,3,4-oxadiazol-2-yl)phenyl)piperidin-3-yl)-N2-(5-phenyloxazol-2-yl)cyclohexane-1,2-diamine bis-trifluoroacetate]: the EC50 under setting [2] worked out at 9 nM.
With `C[C@]1(N[C@@H]2CCCC[C@H]2Nc2cc(-c3cccc(C(N)=O)c3)ccn2)CCCN(c2ccc(-c3noc(C4CC4)n3)nc2)C1` [Example 450], the concentration for a half-maximal effect (EC50) under setting [1] stood at 10 nM.
For `COc1ccc(-c2ccnc(N[C@@H]3CCCC[C@H]3N[C@H]3CCCN(c4ccc(C#N)cc4)C3)c2)cc1` [Example 219], the EC50 under setting [3] came to 45 nM.
Take `CC(C)NCc1cccc(-c2ccnc(N[C@@H]3CCCC[C@H]3N[C@H]3CCCN(c4ccc(C(F)(F)F)cc4)C3)c2)c1` [Example 143]: the EC50 under setting [5] came to 107 nM.
Turning to `c1ccc(-c2cnc(N[C@@H]3CCCC[C@H]3N[C@H]3CCCN(c4ccc(-n5cccn5)cc4)C3)o2)cc1` [Example 62, (1R,2R)—N1-((S)-1-(4-(1H-Pyrazol-1-yl)phenyl)piperidin-3-yl)-N2-(5-phenyloxazol-2-yl)cyclohexane-1,2-diamine trifluoroacetate], the EC50 under setting [2] worked out at 61 nM.
Consider `COC(=O)Nc1cccc(-c2cnc(N[C@@H]3CCCC[C@H]3N[C@H]3CCCN(c4ccc(C#N)cc4)C3)o2)c1` [Example 282], for which the EC50 under setting [3] stood at 1 nM.
Regarding `FC(F)(F)Oc1ccc(-c2cnc(N[C@@H]3CCCC[C@H]3N[C@H]3CCCN(c4ccc5ncnn5c4)C3)o2)cc1` [Example 482], under setting [1], the EC50 worked out at 107 nM.
Still for that read-out and setting: next, `Cc1noc(-c2ccc(N3CCC[C@H](N[C@@H]4CCCC[C@H]4Nc4nccc(-c5ccccc5)n4)C3)cc2)n1` [Example 354]: 15 nM.
In the case of `O=[N+]([O-])c1cnc(N2CCC[C@H](N[C@@H]3CCCC[C@H]3Nc3ncc(-c4ccc(OC(F)(F)F)cc4)o3)C2)nc1` [Example 78, (1R,2R)—N1-((S)-1-(5-Nitropyrimidin-2-yl)piperidin-3-yl)-N2-(5-(4-(trifluoromethoxy)phenyl)oxazol-2-yl)cyclohexane-1,2-diamine bis-trifluoroacetate], the EC50 under setting [2] was 75 nM.
As to `N#Cc1ccc(N2CCC[C@H](N[C@@H]3CCCC[C@H]3Nc3cn(-c4ccc(OC(F)(F)F)cc4)nn3)C2)cc1` [Example 202], under setting [3], the EC50 was determined as 774 nM.
Take `Nc1cccc(-c2cnc(N[C@@H]3CCCC[C@H]3N[C@H]3CCCN(c4ccc(C(F)(F)F)cc4)C3)o2)c1` [Example 172]: the EC50 under setting [5] came to 5 nM.
In the case of `CC(C)(O)c1cccc(-c2ccnc(N[C@@H]3CCCC[C@H]3N[C@H]3CCCN(c4ccc(C(F)(F)F)cc4)C3)c2)c1` [Example 126], under setting [5], the EC50 is 48 nM.
With `CC(C)COC(=O)Nc1cccc(-c2cnc(N[C@@H]3CCCC[C@H]3N[C@H]3CCCN(c4cnc(C(F)(F)F)nc4)C3)o2)c1` [Example 419], under setting [1], the concentration giving a half-maximal response (EC50) worked out at 7 nM.
Turning to `Fc1cc(N2CCC[C@H](N[C@@H]3CCCC[C@H]3Nc3nccc(-c4ccccc4)n3)C2)ccc1C(F)(F)F` [Example 74, (1R,2R)—N1-((S)-1-(3-Fluoro-4-(trifluoromethyl)phenyl)piperidin-3-yl)-N2-(4-phenylpyrimidin-2-yl)cyclohexane-1,2-diamine bis-trifluoroacetate], under setting [2], the EC50 turned out to be 420 nM.
Take `C[C@]1(N[C@@H]2CCCC[C@H]2Nc2ncc(-c3cccc(C(N)=O)c3)o2)CCCN(c2ccc(C(=O)NC(=O)C3CC3)nc2)C1` [Example 446]: the EC50 under setting [1] came to 6 nM.
Consider `N#Cc1ccc(-c2cnc(N[C@@H]3CCCC[C@H]3N[C@H]3CCCN(c4ccc([N+](=O)[O-])cc4)C3)o2)cc1` [Example 285], for which, under “TABLE 3, R2 is Phenyl-NO2, read-out: hY4 CAMP EC50”, the EC50 was 26 nM.
For the compound `N#Cc1ccc(N2CCC[C@H](N[C@@H]3CCCC[C@H]3Nc3ncc(-c4ccc(OC(F)(F)F)cc4)o3)C2)cc1Cl` [Example 38, 2-Chloro-4-((S)-3-((1R,2R)-2-(5-(4-(trifluoromethoxy)phenyl)oxazol-2-ylamino)cyclohexylamino)piperidin-1-yl)benzonitrile bis-trifluoroacetate], the EC50 under setting [2] was 8 nM.
Take `CC(C)OC(=O)Nc1cccc(-c2ccnc(N[C@@H]3CCCC[C@H]3N[C@H]3CCCN(c4ccc(C(F)(F)F)cc4)C3)c2)c1` [Example 134]: under setting [5], the EC50 amounted to 13 nM.
`N#Cc1cnc(N2CCCC(N[C@@H]3CCCC[C@H]3Nc3ncc(-c4cccc(C(N)=O)c4)o3)C2)nc1` (stereo partly shown) [Example 437]: under setting [1], the EC50 came to 35 nM.
`N#Cc1ccc(N2CCC[C@H](N[C@@H]3CCCC[C@H]3Nc3cc(-c4ccccc4OC(F)(F)F)ccn3)C2)cc1` [Example 241]: the EC50 under setting [3] amounted to 289 nM.
Take `N#Cc1ccc(N2CCC[C@H](N[C@@H]3CCCC[C@H]3Nc3cc(-c4ccc(F)cc4)ccn3)C2)cc1` [Example 44, 4-((S)-3-((1R,2R)-2-(4-(4-Fluorophenyl)pyridin-2-ylamino)cyclohexylamino)piperidin-1-yl)benzonitrile tris-trifluoroacetate]: the EC50 under setting [2] was 50 nM.
Consider `C[C@]1(N[C@@H]2CCCC[C@H]2Nc2cc(-c3cccc(C(N)=O)c3)ccn2)CCCN(c2ccc(C(F)(F)F)cc2)C1` [Example 120], for which, under setting [5], the EC50 is 3 nM.
As for `CNC(=O)Cc1cccc(-c2ccnc(N[C@@H]3CCCC[C@H]3N[C@H]3CCCN(c4ccc(C(F)(F)F)cc4)C3)c2)c1` [Example 175], under setting [5], the EC50 was found to be 2 nM.
For the compound `NC(=O)c1cccc(-c2ccnc(N[C@@H]3CCCC[C@H]3N[C@H]3CCCN(c4cnc(C(F)(F)F)nc4)C3)c2)c1` [Example 408], under setting [1], the 50% effective concentration (EC50) came out at 121 nM.
For the compound `Cc1nc2ccc(N3CCC[C@H](N[C@@H]4CCCC[C@H]4Nc4ncc(-c5ccc(F)cc5F)o4)C3)cn2n1` [Example 493], the EC50 under setting [1] turned out to be 47 nM.
Turning to `N#Cc1ccc(N2CCC[C@H](N[C@@H]3CCCC[C@H]3Nc3cc(Br)ccn3)C2)cc1` [Example 50, 4-((S)-3-((1R,2R)-2-(4-Bromopyridin-2-ylamino)cyclohexylamino)piperidin-1-yl)benzonitrile], under setting [2], the EC50 stood at 231 nM.
Turning to `Cc1nnc(-c2ccc(N3CCCC(N[C@@H]4CCCC[C@H]4Nc4cc(-c5ccc(Cl)cc5)ccn4)C3)cc2)o1` (stereo partly shown) [Example 365], the EC50 under setting [1] was 52 nM.
